The values that follow come from US20080118437A1, “Diagnosis and treatment O prostate cancer” (Regents of the University of Michigan, priority 2006, published 2008).

Assay [1] relates to PC-3 cells. As to the kind of experiment: Fluorescence-based migration assay toward hrMCP-1. The class given is cell-based, human. As to conditions: MCP-1 1-100 ng/mL. As for the experimental part:
(§1) Flouresence-based Migration Assay—Cell migration was assessed using the Innocyte Cell Migration Assay (Calbiochem, Inc.) following the manufacturer's instructions. Briefly, increasing concentrations of MCP-1 (1-100 ng/mL) in the presence and absence of CCR2 inhibitors or neutralizing antibodies were added to the lower chamber of a 96 well plate. Cells were harvested by 0.5 μM EDTA release and resuspended at 2.5×10^5 cells/mL in serum free media. 2.5×10^4 cells were added to the upper chamber and allowed to migrate through the membrane with 8 μm pores for 24 hours at 37° C. and 5% CO2 atmosphere. Cells that migrated through the membrane were detached and labeled with Calcein AM and fluorescence was measured using fluorescent plate reader with excitation wavelength of 485 nm and emission wavelength of 520 nm. The experiments were repeated twice and each conditioned was performed in quadruplicate in each experiment.

Assay [2] relates to VCaP cells. Description: Fluorescence-based migration assay toward hrMCP-1. The class given is cell-based, human. As to conditions: MCP-1 1-100 ng/mL. As to the method:
as §1

Assay [3] has as its system VCaP xenografts. As to the kind of experiment: VCaP subcutaneous xenograft model of tumorigenesis. The class given is in vivo, male SCID mice. As to the method:
Xenograft tumors were established as previously described (Loberg et al., Urol Oncol 24 (2006) 161-168). Briefly, male SCID mice (5-6 weeks of age) were injected subcutaneously in the flank with 1×10^6 VCaP cells in 200 μL Matrigel (BD Biosciences, Inc.). Tumor volumes were calculated by caliper measurement performed weekly to monitor and track tumor growth (tumor volume=L×W×W×0.56). […] Mice were treated with 2 mg/Kg antibody twice weekly by intraperitoneal injection, beginning on Day 28 and for the remainder of the study.
Xenograft tumors were harvested and placed in fresh 10% formalin. Tumors were paraffin-embedded and 5 μm sections were cut and placed on glass slides. Hematoxylin and eosin stain was performed per the manufacturer's instructions (Sigma, Inc.). Identification of neovascularization was accomplished by labeling with an anti-CD31 antibody and macrophage infiltration was identified using an anti-CD68 antibody. Tissue sections were incubated for 10 minutes in citrate buffer, pH 6.0 and microwaved. Sections were incubated with anti-CD31 (DakoCytomation, Inc.; 1:50) or anti-CD68 (DaKoCytomation, Inc.; 1:1600) for 30 minutes and detected with LSAB+detection/DAB (3,3′-Diaminobenzidine; Sigma, Inc.) for 5 minutes. Slides were dipped in hematoxylin for 1 second as a counterstain.

As for “CNTO888: human IgG1κ antibody that neutralizes human CCL2”, the “effect on MCP-1 induced dose dependent migration of PC-3 cells” value in assay [1] is given as “attenuated”. Also, the “effect on MCP-1 induced dose dependent migration of VCaP cells” value in assay [2] is on record as “attenuated”. Besides, in assay [3] (2 mg/Kg twice weekly i.p.), the “attenuation of VCaP subcutaneous tumor growth” value is recorded as 42.2%. The “reduction in tumor volume / tumor growth on Day 50 compared to control antibody” value in assay [3] (2 mg/Kg twice weekly i.p. from Day 28 for 3 weeks) is recorded as 42.2%. The “macrophage infiltration, CD68+ cells, mean ±SD” value in assay [3] (VCaP xenograft, 2 mg/Kg twice weekly i.p.) was 9.00±7.94 cells per 100× objective field. Besides, the “angiogenesis by CD31 staining of xenograft tumors” value in assay [3] (compared to isotype controls) is listed as “decreased the amount of angiogenesis”.
